Results: US10426773B2, “Systems pharmacology for treating ocular disorders” (Case Western Reserve Univeristy, priority 2011, dated 2019)
“Also recorded” adds a separate entry of the source.

Columns and labels:
Abca4−/−Rdh8−/− mice = test: Bright light-induced retinal degeneration in Abca4−/−Rdh8−/− mice, ERG retinal function; conditions: pretreatment before light 10,000 lux 30 min; ERG 7 days to 2 weeks after; listed as DOX
[1] = test system: ROS generation in photoreceptors of Abca4−/−Rdh8−/− mice; test: In vivo detection of ROS (DHE probe) in retinas of light-exposed Abca4−/−Rdh8−/− mice; design: species or system mouse; conditions: Example 3; DOX 10 mg/kg, GUB 2.0 mg/kg, SQ 0.5 mg/kg ip 30 min prior to light
Experimental: The ROS probe, DHE, at a dose of 20 mg/kg body weight was administered to Abca4^−/−Rdh8^−/− mice via intraperitoneal injection 30 min prior to light exposure. Eye cups obtained after removing the cornea, lens and vitreous body from enucleated eye globes 3 h post light illumination were fixed in 4% paraformaldehyde. Cryosections were prepared from fixed eye cups and cut at 12 am thickness for microscopic assessment of ROS signal fluorescence in the retina.
The ROS probe, DHE, at a dose of 20 mg/kg body weight in 25 μl of DMSO, was administered to Abca4^−/−Rdh8^−/− mice via intraperitoneal injection 1 h prior to light exposure. Eye cups obtained after removing the cornea, lens, and vitreous body from enucleated eye globes 3 h post light illumination were fixed in 4% paraformaldehyde. Cryosections were prepared from fixed eye cups and cut at 12-am thickness for microscopic assessment of ROS fluorescence in the retina with ImageJ software (National Institutes of Health).

BALB/c mice = test: Light-induced retinal degeneration in BALB/c mice, SLO autofluorescence imaging; format: in vivo, mouse; conditions: DOX 10, GUB 2.0, SQ 0.5 mg/kg, 7 days after light
Experimental: SLO (Heidelberg Engineering) was carried out for in vivo whole fundus imaging of mouse retinas. […] Numbers of autofluorescent spots were counted and subjected to statistical analyses as described below.
These drugs were administered to 4-week-old BALB/c mice by intraperitoneal injection 30 min prior to white light exposure at 10,000 lux for 1 h. Retinal morphology was assessed 7 days after light exposure by OCT imaging and histological examination.

[2] = Quantification of selected drugs in mouse serum and eye by LC-MS; format: in vivo, C57BL/6J WT mice
Experimental: C57BL/6J WT mice at 6 weeks of age (Jackson Laboratory) were treated with DOX, GUB, or SQ at a single dose of 10, 2, and 0.5 mg per kilogram, respectively. The compound was dissolved in 50% DMSO in PBS (137 mM NaCl, 2.7 mM KCl, 0.67 mM […]). Next, to precipitate excess proteins, 0.3 ml of methanol was added to both the eye homogenate and 0.1 ml of serum. Samples were vortexed for 30 s followed by centrifugation for 15 min at 16,000 g. Clear supernatants were collected and used directly for LC-MS analysis. 2HPO4/KH2PO4, pH 7.4) and administrated by intraperitoneal injection. Thirty minutes later the mice were anesthetized. Blood samples were collected using the technique of cardiac puncture and subsequently centrifuged (5 min, 16,000 g) to collect serum. Prior to harvesting eyes, mice were intracardially perfused with PBS to minimalize blood contamination. Eye balls were immediately homogenized in 0.1 ml of PBS. The homogenate and serum samples were spiked with 100 pmols of internal standard (IS) (parazosin—2-[4-(2-furoyl)piperazin-1-yl]-6,7-dimethoxyquinazolin-4-amine (Sigma Aldrich) or clenbuterol—(RS)-1-(4-Amino-3,5-dichlorophenyl)-2-(tert-butylamino)ethanol (Sigma Aldrich)) for DOX, GUB or SQ quantification, respectively.
Mass spectrometry (MS) based detection and quantification of DOX, GUB, and SQ was performed with a L×Q linear ion trap mass spectrometer (Thermo Scientific) equipped with an electrospray ionization (ESI) interface and coupled to Agilent 1100 HPLC (Agilent Technologies). Separation of drugs and the internal standards was achieved on a reverse phase C18 Phenomenex HPLC column (250×4.60 mm; 5 μm) by a linear gradient of to 100% acetonitrile in water within 15 min at flow rate of 0.5 ml/min. All solvents contained 0.1% formic acid (v/v). The HPLC effluent was sprayed into the MS via an ESI probe operated in the positive ionization mode. Parameters of ionization and detection were tuned with synthetic standards for the drugs to achieve the highest possible sensitivity. Dox and parazosin (internal standard) were detected by selected reaction monitoring (SRM) using m/z 452.2→344.2 and 384.2→247.1 transitions whereas GUB, SQ and their corresponding IS, clenbuterol, was by fragmentation at m/z 231.1→214.0, 206.1→136.0, and 277.1→259.1, respectively. The elution times for DOX, GUB, and SQ were ˜12.8, 12.3, and 10.8 min, respectively. Both internal standards eluted at 12.0 min (FIG. 34). Calibration curves were calculated based on the linear relationship between ratios of SRM ion intensity peak area corresponding to the selected drug and the IS vs. molar ratios of the compounds in the range of 20-500 pmol (FIG. 34H).

COc1cc2nc(N3CCN(C(=O)C4COc5ccccc5O4)CC3)nc(N)c2cc1OC.CS(=O)(=O)O (stereo not drawn) [Doxazosin]
retinal function by ERG (a-wave and b-wave amplitudes) (Abca4−/−Rdh8−/− mice): substantial preservation of the scotopic ERG response; also recorded: substantial preservation of this response
ROS generation in photoreceptors (DHE signal) [1]: decreased
autofluorescent spots by SLO (BALB/c mice): prevented
Eye ± SD ([2]; 30 min after a single ip dose: DOX 10, GUB 2, SQ 0.5 mg per kilogram, mice perfused with PBS): 11.0 ± 1.7 pmol/eye
concentration at 30 min ([2]; C57BL/6J, mouse, serum, intraperitoneal, 30 min after a single ip dose: DOX 10, GUB 2, SQ 0.5 mg per kilogram, read-out: Serum ± SD): 465 ± 128 nM
amount in eye compared with level in 0.1 mL of serum ([2]; eye volume taken as about 0.1 mL): 5 times lower
